Assay [1] concerns diabetic rats exhibiting contrast-induced nephropathy. The assay can be described thus: Contrast-induced nephropathy (CIN) model in streptozotocin-diabetic rats, contrast agent iomeprol. It is filed as in vivo, Male Wistar rats. As for the experimental part: Effect of Tetracyclic 1H-indeno[1,2-b]pyridine-2(5H)-one analogs on the prophylaxis of contrast induced nephropathy
Male Wistar rats (150-200 g; Harlan Nossanr) were housed in a controlled environment and provided with standard rodent chow and water.
After 12 h of fasting, the animals received a single 60 mg/kg intravenous (i.v.) injection of streptozotocin (Sigma, St. Louis, Mo.) in 10 mM sodium citrate buffer, pH 4.5 (see figure showing CIN model). Control non-diabetic animals were fasted and received citrate buffer alone. After 24 h, animals with blood glucose levels greater than 250 mg/dl were considered diabetic. All experiments were performed 10 days following the induction of diabetes. The diabetic state was evaluated daily by determination of the blood glucose levels. Upon the induction of the diabetic state the animals were presenting with a major risk factor pre-disposing the animals to CIN after the administration of contrast media.
10 days following the induction of diabetes the rats were anesthetized with 90 mg/kg ketamine i.m. and 10 mg/kg xylazine i.m. and were treated with the contrast agent iomeprol (10 mL/kg injected via the lateral tail vein) or with 0.9% normal saline. The contrast agent used was the low osmolar non-ionic monomer iomeprol (lomeron, 400 mgI mL−1; Bracco SpA, Milan, Italy) with an osmolality of 726±34 mosmol/kg H2O.
Upon completion of surgical procedures, the animals were randomly allocated to different groups.
At the indicated time point blood samples were collected via the lateral tail vein into S1/3 tubes containing serum gel. The samples were centrifuged (6000 r.p.m. for 3 min) to separate plasma. All plasma samples were analyzed for biochemical parameters within 24 hours after collection. Plasma urea, plasma and urine concentrations of creatinine were measured as indicators of impaired glomerular function. Plasma concentrations of NGAL (neutrophil gelatinase associated lipocalin) levels and urine αGST (alpha glutathione S-transferase)and NGAL levels were evaluated.
At postmortem, a […] section of kidney was removed and placed in formalin and processed through to wax. […] sections were cut and stained with hematoxylin and eosin. Histologic assessment of outer medulla damage was examined by an experienced morphologist, who was not aware of the sample identity. The criteria for injury/necrosis were the following: 0=normal histology; 1=minor edema, minor cell swelling; 2=haemorrhage, moderate edema, moderate cells vacuolization and swelling; 3=moderate haemorrhage, moderate edema, moderate cells vacuolization, swelling and chromatin alteration; 4=severe edema, severe cells vacuolization, swelling and chromatin alteration, presence of necrosis spot; 5=severe edema, severe cells vacuolization, swelling and chromatin alteration, severe necrosis.

The next assay addresses T1, PARP (Mus musculus, UniProt P11103).
T1 construct: PARP Activity in Cultured Macrophages, Using a Whole-Cell Based Assay; endogenous in cells; host or cells: murine RAW macrophages (ATCC)
Description: PARP activity in cultured macrophages, whole-cell based assay (3H-NAD+ incorporation after hydrogen peroxide). As to conditions: murine RAW macrophages, 1 hour pretreatment, hydrogen peroxide 0.5 mM. As for the experimental part:
Effect of Tetracyclic 1H-indeno[1,2-b]pyridine-2(511)-one Analogs on PARP Activity in Cultured Macrophages, Using a Whole-Cell Based Assay
The murine RAW macrophages (ATCC, American Type Culture Collection, Manassas, Va.) were grown in […] (Invitrogen Life Technologies; Carlsbad, Calif.) medium supplemented with 10% heat-inactivated FBS, 2 mM L-glutamine, and 100 U/ml of penicillin and streptomycin. Cells, between passages 5 and 15, were seeded at a density of 250,000 cells/well in 12 well plates and allowed to grow 48 hours before use. Growth medium was changed on the day of use. Cells were treated with a tetracyclic 1H-indeno[1,2-b]pyridine-2(5H)-one analog diluted in a growth medium supplemented with 10% fetal bovine serum (FBS) for 1 hour prior to the addition of hydrogen peroxide (0.5 mM) for a further 25 minutes. For the measurement of PARP activity, media was removed and replaced with 0.5 ml of the assay buffer (56 mM HEPES-pH 7.5, 28 mM KCl, 28 mM NaCl, 2 mM MgCl2, 0.01% digitonin, and 0.5 μCi/ml of ^3H-NAD^+) for 20 minutes. After aspirating the assay buffer, cells were lysed and transferred to eppendorf tubes containing 250 μl of 50% ice-cold trichloroacetic acid (TCA), which were then placed at 4° C. for 4 hours. Samples were centrifuged at 10,000 g for 10 minutes and supernatant removed. The pellets were washed twice with 500 μl of ice-cold 5% w/v TCA. The pellets were then solubilized in 250 μl of NaOH (0.1 M) containing 2% SDS overnight at 37° C. and the PARP activity was then determined by measuring the radioactivity incorporated using a Wallac scintillation counter. The solubilized protein (250 μl) was mixed with 5 ml of scintillation fluid (ScintiSafe Plus, Fisher Scientific) before being counted for 3 minutes. EC50 values were determined from a dose-response curve.

For another assay, the target named is T2, PARP-1 enzyme (Homo sapiens, UniProt P09874).
T2 construct: purchased Trevigen, Gaithersburg, Md
Description: Purified PARP-1 enzyme inhibition assay (Trevigen kit, 96 well ELISA plates). It is filed as biochemical. How it is done: Effect of Tetracyclic 1H-indeno[1,2-b]pyridine-2(5H)-one analogs on PARP Activity in purified PARP-1 enzyme assay
The potency of inhibition on purified PARP-1 enzyme was subsequently determined for selected compounds, and the potency was compared with INO-1001. The assay was performed in 96 well ELISA plates according to instructions provided with a commercially available PARP-1 inhibition assay kit (Trevigen, Gaithersburg, Md.). Briefly, wells were coated with 1 mg/ml histone (50 μl/well) at 4° C. overnight. Plates were then washed four times with PBS and then blocked by adding 50 μl Strep-Diluent (supplied with the kit). After incubation (1 h, 25° C.), the plates were washed four times with PBS. Appropriate dilutions of compound was combined with 2×PARP cocktail (1.95 mM NAD^+, 50 μM biotinylated NAD^+ in 50 mM TRIS pH 8.0, 25 mM MgCl2) and high specific activity PARP enzyme (both were supplied with the kit) in a volume of 50 μl. The reaction was allowed to proceed for 30 min at room temperature. After 4 washes in PBS, incorporated biotin was detected by peroxidase-conjugated streptavidin (1:500 dilution) and TACS Sapphire substrate. EC50 and IC50 values were determined from a dose-response curve.

Counter-ions that a name gives are not always drawn.

T2 sequence (P09874 whole entry): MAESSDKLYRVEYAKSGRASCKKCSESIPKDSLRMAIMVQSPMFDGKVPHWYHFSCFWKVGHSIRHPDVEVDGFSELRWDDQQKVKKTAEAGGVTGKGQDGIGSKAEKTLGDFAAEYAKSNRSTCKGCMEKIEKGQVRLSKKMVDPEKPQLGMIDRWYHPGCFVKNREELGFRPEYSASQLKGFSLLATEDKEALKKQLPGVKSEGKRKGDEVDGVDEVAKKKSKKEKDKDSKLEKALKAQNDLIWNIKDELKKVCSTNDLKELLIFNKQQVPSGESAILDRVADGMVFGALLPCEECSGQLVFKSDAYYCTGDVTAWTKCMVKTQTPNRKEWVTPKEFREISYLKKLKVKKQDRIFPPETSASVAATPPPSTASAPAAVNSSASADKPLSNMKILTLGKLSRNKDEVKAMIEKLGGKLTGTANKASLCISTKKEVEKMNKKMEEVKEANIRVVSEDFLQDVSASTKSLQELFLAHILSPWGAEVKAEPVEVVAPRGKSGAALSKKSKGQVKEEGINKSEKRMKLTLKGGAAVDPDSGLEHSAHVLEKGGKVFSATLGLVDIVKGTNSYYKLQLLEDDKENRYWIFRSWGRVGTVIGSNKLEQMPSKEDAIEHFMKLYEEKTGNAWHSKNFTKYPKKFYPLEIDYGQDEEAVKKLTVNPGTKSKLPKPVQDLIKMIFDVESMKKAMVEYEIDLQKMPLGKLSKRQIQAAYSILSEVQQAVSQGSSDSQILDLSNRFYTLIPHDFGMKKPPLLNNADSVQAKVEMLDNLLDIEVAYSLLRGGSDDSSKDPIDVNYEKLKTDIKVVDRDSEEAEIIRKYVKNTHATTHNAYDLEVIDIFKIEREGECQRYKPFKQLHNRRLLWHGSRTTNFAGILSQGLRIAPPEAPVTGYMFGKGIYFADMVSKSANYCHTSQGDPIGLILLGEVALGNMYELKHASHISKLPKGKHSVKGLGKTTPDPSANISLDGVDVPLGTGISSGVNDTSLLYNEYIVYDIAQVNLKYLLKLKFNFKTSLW
T1 sequence (P11103 whole entry): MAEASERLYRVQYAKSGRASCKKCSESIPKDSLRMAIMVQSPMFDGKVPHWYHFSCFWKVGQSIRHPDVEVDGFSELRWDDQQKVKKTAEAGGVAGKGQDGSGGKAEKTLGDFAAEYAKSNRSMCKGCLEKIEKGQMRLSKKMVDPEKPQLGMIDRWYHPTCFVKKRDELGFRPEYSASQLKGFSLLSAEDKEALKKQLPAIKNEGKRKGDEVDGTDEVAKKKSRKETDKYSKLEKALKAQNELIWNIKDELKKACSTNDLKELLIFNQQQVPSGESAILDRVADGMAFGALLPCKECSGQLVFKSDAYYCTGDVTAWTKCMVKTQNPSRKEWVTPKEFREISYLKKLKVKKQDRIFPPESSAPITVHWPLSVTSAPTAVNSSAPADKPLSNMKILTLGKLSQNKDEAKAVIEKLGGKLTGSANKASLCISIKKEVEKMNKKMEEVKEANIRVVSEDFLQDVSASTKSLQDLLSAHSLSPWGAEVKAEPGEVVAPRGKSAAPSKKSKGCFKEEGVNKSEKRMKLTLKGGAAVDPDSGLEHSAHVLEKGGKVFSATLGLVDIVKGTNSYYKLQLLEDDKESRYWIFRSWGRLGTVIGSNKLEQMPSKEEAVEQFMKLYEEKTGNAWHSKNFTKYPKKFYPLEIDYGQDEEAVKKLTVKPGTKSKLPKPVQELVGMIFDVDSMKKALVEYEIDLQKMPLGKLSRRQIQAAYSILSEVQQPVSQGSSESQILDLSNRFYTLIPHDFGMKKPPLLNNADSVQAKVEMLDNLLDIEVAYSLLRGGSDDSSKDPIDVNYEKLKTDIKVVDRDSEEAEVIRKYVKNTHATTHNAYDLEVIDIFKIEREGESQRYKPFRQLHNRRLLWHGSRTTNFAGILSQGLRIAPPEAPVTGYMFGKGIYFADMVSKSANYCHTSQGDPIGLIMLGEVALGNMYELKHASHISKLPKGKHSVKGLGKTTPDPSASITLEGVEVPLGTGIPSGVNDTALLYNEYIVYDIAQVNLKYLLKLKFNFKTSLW

On to `O=c1[nH]c2c(c3c1CCCC3)Cc1c(CN3CC[C@H](F)C3)cccc1-2` [Example 17, (S)-10-((3-fluoropyrrolidin-1-yl)methyl)-3,4,6,11-tetrahydro-1H-indeno[1,2-c]isoquinolin-5(2H)-one mesylate], for which the kidney histological scores result in assay [1] (outer medulla damage score 0-5, FIG. 4) is given as “reduced”. Further, the “level of plasma creatinine” value in assay [1] (relative to contrast agent alone, FIG. 1) was “reduces”. In addition, in assay [1] (relative to contrast agent alone, FIG. 2), the “level of plasma NGAL” value is recorded as “reduces”. In assay [1] (relative to contrast agent alone, FIG. 3), the “level of urine NGAL” value is on record as “reduces”. Further, the “level of urine GST” value in assay [1] (relative to contrast agent alone, FIG. 5) is “reduces”.

Turning to `O=c1[nH]c2c(c3ncccc13)Cc1c(CNC3CCCC3)cccc1-2` [Example 62, 10-((cyclopentylamino)methyl)-6,11-dihydro-5H-indeno[1,2-h][1,6]naphthyridin-5-one], the EC50 – broadly, the concentration at which the effect is half-maximal – on PARP stood at 13 nM. Also, at PARP-1 enzyme, the IC50 (in general, the concentration that inhibits the measured activity by half) was determined as 28.1 nM.

Regarding `O=c1[nH]c2c(c3c1CCCC3)Cc1c(CN3CC=CCC3)cccc1-2` [Example 69, 10-((5,6-dihydropyridin-1(2H)-yl)methyl)-3,4,6,11-tetrahydro-1H-indeno[1,2-c]isoquinolin-5(2H)-one], the EC50 on PARP turned out to be 18.4 nM. For the same compound, half-maximal inhibition against PARP-1 enzyme (IC50) required 54.7 nM.

Source of the values: US20100261706A1, “SUBSTITUTED TETRACYCLIC 1H-INDENO [1,2-B]PYRIDINE-2(5H)-ONE ANALOGS THEREOF AND USES THEREOF” (INOTEK PHARMACEUTICALS CORPORATION, priority 2008, published 2010).
